# Results: US9849130B2 (KamTek, Inc., priority 2014, dated 2017)
# Read-outs that look alike come from different tables or passages of the source.
# Columns and labels:
# [1] = system: Bifidobacterium strains; experiment: MIC by microdilution in BHI broth against Bifidobacterium strains; format: cell-based, Bifidobacterium spp.; conditions: Bifidobacterium
# [2] = system: C. difficile VPI10463; conditions: Clostridioides difficile, C. difficile VPI10463
# [3] = system: Lactobacillus strains; experiment: MIC against Lactobacillus strains; format: cell-based, Lactobacillus spp.
# [4] = system: Staphylococcus aureus strains; experiment: MIC by microdilution in Mueller-Hinton broth against Staphylococcus aureus strains; format: cell-based; conditions: Staphylococcus aureus
# [5] = system: CD strains; experiment: In vitro activity of CFM + additional antimicrobial agent against CD (MIC alone/combination, FIC, ΣFIC); format: cell-based, Clostridium difficile; conditions: CFM + VAN; for MIC: Clostridioides difficile
# [6] = system: C. perfringens MH310; experiment: microbe, parasite or virus in culture; format: cell-based
# [7] = system: Escherichia coli strains; experiment: MIC by microdilution in Mueller-Hinton broth against Escherichia coli strains; format: cell-based
# [8] = system: Lachnospiraceae and related bacterial strains; experiment: MIC against Lachnospiraceae and related bacterial strains; format: cell-based, Lachnospiraceae spp.
# [9] = system: Enterococcus faecalis; experiment: MIC by microdilution in Mueller-Hinton broth against Enterococcus faecalis strains; format: cell-based; conditions: Enterococcus faecalis
# [10] = system: Clostridium difficile (CD) strains; experiment: microbe, parasite or virus in culture; format: cell-based
# [11] = system: Enterococci faecium; experiment: MIC by microdilution in Mueller-Hinton broth against Enterococci faecium strains; format: cell-based, Enterococcus faecium
# [12] = Test 13, CD strain BAA1805 (BI/NAP1/027)
# [13] = Test 16, CD strain BAA1805 (BI/NAP1/027)
smiles,measurement,setting,value
"CN[C@H](CC(C)C)C(=O)N[C@H]1C(=O)N[C@@H](CC(N)=O)C(=O)N[C@H]2C(=O)N[C@H]3C(=O)N[C@H](C(=O)N[C@H](C(=O)O)c4cc(O)cc(O)c4-c4cc3ccc4O)[C@H](O)c3ccc(c(Cl)c3)Oc3cc2cc(c3O[C@@H]2O[C@H](CO)[C@@H](O)[C@H](O)[C@H]2O[C@H]2C[C@](C)(N)[C@H](O)[C@H](C)O2)Oc2ccc(cc2Cl)[C@H]1O [VAN, vancomycin]",MIC,[1],0.25 µg/mL
same,MIC,"[2]; VPI10463, Expt. 1, fecal extract (human feces 20% w/v in BHI)",1 µg/mL
same,MIC,"[2]; VPI10463, Expt. 1, −fecal extract",0.5 µg/mL
same,MIC,"[2]; VPI10463, Expt. 2, +fecal extract (human feces 20% w/v in BHI)",0.5 µg/mL
same,MIC,"[2]; VPI10463, Expt. 2, −fecal extract",0.5 µg/mL
same,in vitro activity against Lactobacillus spp. (in words),[3],six strains susceptible and four resistant
same,MIC,[4]; S. aureus NR 10129,1 µg/mL
same,MIC,[4]; S. aureus NR 10186,1 µg/mL
same,MIC,[4]; S. aureus NR 10187,2 µg/mL
same,MIC,[4]; S. aureus NR 10188,1 µg/mL
same,MIC,[4]; S. aureus NR 10189,2 µg/mL
same,MIC,[4]; S. aureus NR 10191,1 µg/mL
same,MIC,[4]; S. aureus NR 10192,1 µg/mL
same,MIC,[4]; S. aureus NR 10193,2 µg/mL
same,MIC,[4]; S. aureus NR 10194,1 µg/mL
same,MIC,[4]; S. aureus NR 10198,2 µg/mL
same,MIC,[4]; Staphylococcus aureus strain NR 10129,1 µg/mL
same,MIC,[4]; Staphylococcus aureus strain NR 10186,1 µg/mL
same,MIC,[4]; Staphylococcus aureus strain NR 10187,2 µg/mL
same,MIC,[4]; Staphylococcus aureus strain NR 10188,1 µg/mL
same,MIC,[4]; Staphylococcus aureus strain NR 10189,2 µg/mL
same,MIC,[4]; Staphylococcus aureus strain NR 10191,1 µg/mL
same,MIC,[4]; Staphylococcus aureus strain NR 10192,1 µg/mL
same,MIC,[4]; Staphylococcus aureus strain NR 10193,2 µg/mL
same,MIC,[4]; Staphylococcus aureus strain NR 10194,1 µg/mL
same,MIC,[4]; Staphylococcus aureus strain NR 10198,2 µg/mL
same,MIC,"[5]; BAA1805, read-out: MIC alone, Test 13, CD strain BAA1805 (BI/NAP1/027)",0.5 µg/mL
same,MIC,"[5]; BAA1805, read-out: MIC alone, Test 16, CD strain BAA1805 (BI/NAP1/027)",0.5 µg/mL
same,MIC,"[5]; read-out: MIC alone, Test 1, CD strain VPI 10463",2 µg/mL
same,MIC,"[5]; read-out: MIC alone, Test 2, CD strain VPI 10463",2 µg/mL
same,MIC,"[5]; read-out: MIC alone, Test 5, CD strain NR32889",2 µg/mL
same,MIC,"[5]; read-out: MIC alone, Test 6, CD strain NR32890",1 µg/mL
same,MIC,"[5]; read-out: MIC alone, Test 7, CD strain NR32885",1 µg/mL
same,MIC,"[5]; read-out: MIC alone, Test 9, CD strain NR32885",1 µg/mL
same,MIC,"[5]; read-out: MIC alone, Test 11, CD strain NR32885",1 µg/mL
same,MIC,"[5]; read-out: MIC alone, Test 18, CD strain NR32888",0.5 µg/mL
same,MIC,"[5]; read-out: MIC alone, Test 20, CD strain NR32888",0.5 µg/mL
same,FIC,"[5]; Test 1, CD strain VPI 10463",0.25
same,MIC combination,"[5]; Test 1, CD strain VPI 10463",0.5 µg/mL
same,FIC,"[5]; Test 2, CD strain VPI 10463",0.25
same,MIC combination,"[5]; Test 2, CD strain VPI 10463",0.5 µg/mL
same,FIC,"[5]; Test 5, CD strain NR32889",1
same,MIC combination,"[5]; Test 5, CD strain NR32889",2 µg/mL
same,FIC,"[5]; Test 6, CD strain NR32890",0.5
same,MIC combination,"[5]; Test 6, CD strain NR32890",0.5 µg/mL
same,FIC,"[5]; Test 7, CD strain NR32885",0.5
same,MIC combination,"[5]; Test 7, CD strain NR32885",0.5 µg/mL
same,FIC,"[5]; Test 9, CD strain NR32885",0.25
same,MIC combination,"[5]; Test 9, CD strain NR32885",0.25 µg/mL
same,FIC,"[5]; Test 11, CD strain NR32885",0.25
same,MIC combination,"[5]; Test 11, CD strain NR32885",0.25 µg/mL
same,FIC,[5]; [12],0.062
same,MIC combination,[5]; [12],0.031 µg/mL
same,FIC,[5]; [13],0.25
same,MIC combination,[5]; [13],0.125 µg/mL
same,FIC,"[5]; Test 18, CD strain NR32888",0.5
same,MIC combination,"[5]; Test 18, CD strain NR32888",0.25 µg/mL
same,FIC,"[5]; Test 20, CD strain NR32888",0.5
same,MIC combination,"[5]; Test 20, CD strain NR32888",0.25 µg/mL
same,MIC,[6],0.25 µg/mL
same,MIC,"[6]; Clostridium perfringens, MH310",0.5 µg/mL
same,MIC,"[7]; E. coli NR 6, Mueller-Hinton broth",>32 µg/mL
same,MIC,"[7]; E. coli NR 8, Mueller-Hinton broth",>32 µg/mL
same,MIC,"[7]; E. coli NR 96, Mueller-Hinton broth",>32 µg/mL
same,MIC,"[7]; E. coli NR 104, Mueller-Hinton broth",>32 µg/mL
same,MIC,"[7]; E. coli NR 17626, Mueller-Hinton broth",>32 µg/mL
same,MIC,"[7]; E. coli NR 17627, Mueller-Hinton broth",>32 µg/mL
same,MIC,"[7]; E. coli NR 17633, Mueller-Hinton broth",>32 µg/mL
same,MIC,"[7]; E. coli NR 17647, Mueller-Hinton broth",>32 µg/mL
same,MIC,"[7]; E. coli NR 17650, Mueller-Hinton broth",>32 µg/mL
same,MIC,"[7]; E. coli NR 17661, Mueller-Hinton broth",>32 µg/mL
same,MIC,[7]; Escherichia coli,> 32 µg/mL
same,MIC,"[7]; Escherichia coli strain NR 6, Mueller-Hinton broth",>32 µg/mL
same,MIC,"[7]; Escherichia coli strain NR 8, Mueller-Hinton broth",>32 µg/mL
same,MIC,"[7]; Escherichia coli strain NR 96, Mueller-Hinton broth",>32 µg/mL
same,MIC,"[7]; Escherichia coli strain NR 17626, Mueller-Hinton broth",>32 µg/mL
same,MIC,"[7]; Escherichia coli strain NR 17627, Mueller-Hinton broth",>32 µg/mL
same,MIC,"[7]; Escherichia coli strain NR 17633, Mueller-Hinton broth",>32 µg/mL
same,MIC,"[7]; Escherichia coli strain NR 17647, Mueller-Hinton broth",>32 µg/mL
same,MIC,"[7]; Escherichia coli strain NR 17650, Mueller-Hinton broth",>32 µg/mL
same,MIC,"[7]; Escherichia coli strain NR 17661, Mueller-Hinton broth",>32 µg/mL
same,susceptibility of Lachnospiraceae and related organisms (in words),[8],susceptible
same,MIC,[8]; Clostridiales bacterium,0.25 µg/mL
same,MIC,[9]; E. faecalis NR 31884,2 µg/mL
same,MIC,[9]; E. faecalis NR 31885,2 µg/mL
same,MIC,[9]; E. faecalis NR 31886,1 µg/mL
same,MIC,[9]; E. faecalis NR 31887,1 µg/mL
same,MIC,[9]; E. faecalis NR 31888,2 µg/mL
same,MIC Range,[10],0.25 to 2.0 µg/mL
same,MIC50,[10]; Clostridioides difficile,0.5 µg/mL
same,MIC90,[10]; Clostridioides difficile,2 µg/mL
same,MIC,"[10]; Clostridioides difficile, BAA1805",1 µg/mL
same,MIC,"[11]; E. faecium NR 31909, Mueller-Hinton broth",>32 µg/mL
same,MIC,"[11]; E. faecium NR 31912, Mueller-Hinton broth",>32 µg/mL
same,MIC,"[11]; E. faecium NR 31915, Mueller-Hinton broth",>32 µg/mL
same,MIC,"[11]; E. faecium NR 31916, Mueller-Hinton broth",>32 µg/mL
same,MIC,[11]; Enterococcus faecium,> 32 µg/mL
